# PubChem BioAssay AID1850 (Southern Research Specialized Biocontainment Screening …, 2009)
# System: Salmonella Typhi PhoP-promoter GFP reporter, fluorescence, 4 h
# Assay: PhoP regulon inhibitors, Salmonella typhi PhoP promoter GFP reporter, confirmatory (AID 1850)
row,SMILES,IC50
1,COc1ccc(/C=C/c2cc(-c3ccc(C)cc3)o[n+]2C)cc1,37.2 µM
2,COc1ccc(NC2=NC3(CCCCC3)N=C(N)N2)cc1,74 µM
3,CNC[C@H](Cc1ccccc1)NC[C@@H](Cc1cccc2ccccc12)NCCc1ccc(C)cc1,19.6 µM
4,Oc1c(Br)cc(Br)cc1C=NCc1ccc(F)cc1,57.4 µM
5,Cc1ccccc1C(=O)NNC(=S)NC(=O)COc1ccccc1,132 µM
6,Cc1cc(N2CCC(C)CC2)nc(NCc2ccccc2)n1,40.2 µM
7,Cc1ccc(C(OCC(O)CNCc2ccc(F)cc2)c2ccccc2)cc1 (stereo not drawn),48.4 µM
8,Fc1ccc(Nc2nc(NCc3ccco3)c3ccccc3n2)cc1,3.81 µM
9,O=c1[nH]c(=S)ccn1C1OC(CO)C(O)C1O (stereo not drawn),28.6 µM
10,CN1/C(=C\C=C\C2=[N+](C)c3ccc4ccccc4c3C2(C)C)C(C)(C)c2ccccc21,5.78 µM
11,Oc1c(C(Nc2ccccn2)c2cccnc2)cc(Cl)c2cccnc12 (stereo not drawn),36.5 µM
12,CCCC(=O)NC(c1ccco1)c1cc([N+](=O)[O-])c2cccnc2c1O (stereo not drawn),38.9 µM
13,Nc1cccc2nc3ccccc3cc12,35.7 µM
14,[O-][n+]1cccc2c(Br)cc(Br)c(O)c21,69.1 µM
15,O=C(Cn1nc(CNc2ccc(Cl)cc2)[n+]2c1CCCCC2)c1ccc(Br)cc1,51.4 µM
16,OCCNc1nc(Nc2ccccc2)nc2ccccc12,10.2 µM
17,Oc1ccccc1Nc1nc(NCc2ccco2)c2ccccc2n1,34.8 µM
18,Oc1c(CN2CCOCC2)cc(COCc2ccccc2)c2cccnc12,38.5 µM
19,COC(=O)C1C(O)C(C)C(O)C(C)(O)/C=C\C=C(/C)C(=O)Nc2c(C)c(OC(C)=O)c3c(c2O)C(=O)C(C)=C2OCOC(=C23)/C(C)=C/C(C)(O)C(O)C(C)C1O (stereo not drawn),27.3 µM
20,O=C(NC(CO)C(O)c1ccc([N+](=O)[O-])cc1)C(Cl)Cl (stereo not drawn),5.12 µM

row,SMILES,IC50
1,O=C(CNCCC1=CCCCC1)Nc1ccc(N2CCCCCC2)cc1,29.6 µM
2,O=C(Nc1c2ccccc2nc2ccccc12)C(Cl)(Cl)Cl,63.5 µM
3,Nc1nonc1C(=O)N/N=C/c1cc(Br)ccc1O,10.5 µM
4,[O-][n+]1c2c(c3c4non(O)c4ccc31)CCCC2,74.7 µM
5,O=C(Nc1nnc(C2COc3ccccc3O2)o1)c1ccc(F)cc1 (stereo not drawn),36.5 µM
6,COc1ccccc1N1CCN(Cc2ccc(O)c3ncccc23)CC1,38.2 µM
7,CN1CCN(C2=Cc3ccccc3Sc3cc(F)c(Cl)cc32)CC1,32.8 µM
8,CNCCCC1Sc2ccccc2Oc2ccccc21 (stereo not drawn),98.5 µM
9,Cc1cc(OCCCCCN2CCCC2)ccc1Cl,122 µM
10,O=C(Cc1ccc(Br)cc1)c1ccc(O)cc1O,119 µM
11,CC1=C([N+](=O)[O-])C(c2cccc(Br)c2)C2=C(N1)c1ccccc1C2=O (stereo not drawn),18.2 µM
12,O=C(N/N=C/c1cc([N+](=O)[O-])ccc1O)C(O)(c1ccccc1)c1ccccc1,73.4 µM
13,CC(C)(c1ccccc1)c1ccc(OCCCNCCO)cc1,72 µM
14,CC(C(=O)NC1C=CS(=O)(=O)C1)N1C(=O)/C(=C/c2cccc(Cl)c2)SC1=S (stereo not drawn),68.6 µM
15,Cc1cc(N2CCC(C)CC2)nc2cccc(O)c12,77.1 µM
16,COc1cc(/C=N/NC(=O)c2cncc(Br)c2)cc([N+](=O)[O-])c1O,63.5 µM
17,CCN1/C(=C/C=C/C=C/c2sc3ccccc3[n+]2CC)Sc2ccccc21,13.2 µM
18,CCCCn1c(NS(=O)(=O)c2ccccc2)c(S(=O)(=O)c2ccc(C)cc2)c2nc3ccccc3nc21,5.99 µM
19,CCSc1ccc2c(c1)N(CCCN1CCN(C)CC1)c1ccccc1S2,45.5 µM
20,Cc1ccccc1S(=O)(=O)NNC(=O)C(=O)NNc1ccccn1,74.3 µM

row,SMILES,IC50
1,Cc1cc(C)n(-c2nc(NCCN(C)C)c3c4c(sc3n2)CCCC4)n1,45.3 µM
2,CCc1ccc(NC(=O)C[n+]2cc(-c3ccc(C)cc3)n3c2CCC3)cc1,39.8 µM
3,CC1CCC(C(C)C)C(OC(=O)C[n+]2cc(-c3ccc(Cl)cc3)n3c2CCC3)C1 (stereo not drawn),38 µM
4,O=C(CSc1nc2ccccc2s1)N/N=C/c1cc([N+](=O)[O-])ccc1O,72.5 µM
5,CN1CCN(Cc2cc(COCc3ccccc3)c3cccnc3c2O)CC1,37.6 µM
6,Cc1nonc1C(=O)N/N=C/c1ccc([N+](=O)[O-])o1,37.5 µM
7,NC(=O)SCC(=O)Nc1cccc(Cl)c1,9.08 µM
8,Cc1cccc2sc(N(CCCN(C)C)C(=O)COc3ccc(Cl)cc3)nc12,38.6 µM
9,O=C(Nc1c(Cl)ccc2nsnc12)c1ccc([N+](=O)[O-])o1,91.4 µM
10,c1cc2c(cc1C1CCCCC1)c1c3n2CCCNC3CCC1 (stereo not drawn),31.2 µM
11,CCCNC1=C(C)C(=O)C2=C(C1=O)C(COC(N)=O)[C@]1(OC)C3NC3CN21 (stereo partly drawn),15.9 µM
12,CCCCCCCCCCCCCCCC[N+](C)(C)C,24.2 µM
13,CN(O)/C=c1/ccc2c(n1)C(=O)C=CC=2,34.8 µM
14,CCCc1nnc(NC(=O)c2cn(CC)c3cc(N4CCN(C)CC4)c(F)cc3c2=O)s1,66.8 µM
15,O=C(/C=C/c1cc(Br)ccc1O)c1ccco1,83.9 µM
16,Nc1nc(Nc2cccc(F)c2)nc2ccccc12,22.9 µM
17,Nc1[nH]ncc1-c1ccccc1,69.6 µM
18,C/C(=N\NC(=O)c1cccc(Br)c1)c1ccccn1,36.6 µM
